From patent US6593340B1, “Pharmaceutical compositions containing N-propargylphentermine and related analogs to treat neurodegeneration and/or depression” (CV Technologies, Inc., priority 2000, dated 2003)
Read-outs that look alike come from different tables or passages of the source.

Experiments:
[1] = target: T1, rat brain monoamine oxidase-B (Rattus norvegicus, UniProt P19643); experiment: Monoamine oxidase-B-inhibiting activity in vitro (radiochemical, β-phenylethylamine substrate); assay type: biochemical
T1 construct: incubated in appropriately diluted homogenates of rat brain or liver; from tissue; host or cells: rat brain or liver homogenate
T1 sequence (P19643 1-520): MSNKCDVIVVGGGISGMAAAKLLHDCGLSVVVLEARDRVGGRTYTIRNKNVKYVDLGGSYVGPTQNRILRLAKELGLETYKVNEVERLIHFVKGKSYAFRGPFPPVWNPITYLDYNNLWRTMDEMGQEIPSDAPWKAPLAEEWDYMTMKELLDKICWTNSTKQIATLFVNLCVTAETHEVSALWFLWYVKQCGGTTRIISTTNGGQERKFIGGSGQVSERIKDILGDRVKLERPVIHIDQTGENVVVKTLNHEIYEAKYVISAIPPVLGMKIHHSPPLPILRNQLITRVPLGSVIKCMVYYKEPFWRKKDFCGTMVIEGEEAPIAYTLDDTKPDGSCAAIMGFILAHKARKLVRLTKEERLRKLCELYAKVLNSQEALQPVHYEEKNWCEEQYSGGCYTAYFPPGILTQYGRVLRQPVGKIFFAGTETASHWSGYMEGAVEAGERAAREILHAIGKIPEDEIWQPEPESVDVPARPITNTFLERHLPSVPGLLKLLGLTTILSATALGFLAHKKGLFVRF
Procedure: The compounds were evaluated for in vitro monoamine oxidase-B inhibiting activity using the radiochemical procedure of Lyles and Callingham (1982) employing radiolabeled β-phenylethylamine as substrate for monoamine oxidase-B. Various concentrations of the compounds of interest were incubated in appropriately diluted homogenates of rat brain or liver in a 0.2 M potassium phosphate buffer. Incubations proceeded at 37° C. for 10 minutes. Incubation was terminated by the addition of hydrochloric acid and the radiolabeled product (phenylacetic acid) was extracted and quantified by liquid scintillation counting procedures. […] The percent inhibition of monoamine oxidase-B activity compared to controls containing no drug was calculated. Reference: Lyles, G. A. and Callingham, B. A. (1982). In vitro and in vivo inhibition by benserazide of clorgyline-resistant amine exodiases in rat cardiovascular tissues. Biochem. Pharmacol, 31:1417-1424.

[2] = system: rat brain and liver monoamine oxidase-A; experiment: Monoamine oxidase-A-inhibiting activity ex vivo; assay type: in vivo; conditions: for % Inhibition Monoamine Oxidase-A: 7 days following injection, i.p., 10 mg/kg combined with DSP4 50 mg/kg; for effect on monoamine oxidase-A activity in the brain or liver: seven days after administration
[3] = system: DSP-4 induced noradrenaline depletion in mouse hippocampus; experiment: Prevention of DSP-4 neurotoxicity ex vivo (noradrenaline depletion); assay type: in vivo; conditions: 10 mg/kg i.p.; for % NA Restoration: then DSP-4 50 mg/kg one hour later, one week
Procedure: Neuroprotectant activity was evaluated by examining the prevention of DSP-4 induced noradrenaline depletion in mouse hippocampus as described previously (Yu et al., 1994). Briefly, mice were injected (i.p.) with either water or potential neuroprotectants (10 mg/kg in water). One hour later they were injected with either water or DSP-4 (50 mg/kg in water). One week later the mice were killed and the brains removed and the hippocampus dissected out. The hippocampus was frozen and saved for estimation of noradrenaline and other amine neurotransmitters and their metabolites (Sloley and Goldberg, 1991). The rest of the brain and the liver were frozen and retained for estimation of monoamine oxidase activities ex vivo as described earlier. […] References: Yu, P. H., Davis, B. A., Fang, J. and Boulton, A. A. (1994), Neuroprotective effect of some monoamine oxidase-B inhibitors against DSP-4 induced noradrenaline depletion in the mouse hippocampus, J. Neurochem. 63:1820-1828. Sloley, B. D. and Goldberg J. I. (1991), Determination of y-glutamyl conjugates of monoamines by means of high-performance liquid chromatography with electrochemical detection and application to gastropod tissues, J. Chromatog. 567:49-56.

[4] = system: serotonin (5-HT) uptake into rat striatal prisms; experiment: Inhibition of serotonin uptake in vitro; assay type: cell-based; set-up: dose or concentration left out as unconfirmed
Procedure: Animals were killed by decapitation and the hippocampus or striatum were removed and placed in ice cold incubation medium. […] 0.8 ml of ice cold prism of suspension per test tube was used. Each test tube was pre-incubated for 5 minutes at 37° C. At this time each test tube was placed on ice and the appropriate drug solution or control was added. This was rapidly followed by the addition of the radiolabled amine (titrated noradrenaline or serotonin, 0.01 μM, specific activity about 13.5 Ci/mmol). The mixture was incubated for 10 minutes at 37° C. The incubations were then filtered and washed using a cell harvester and the radioactivity retained on the filters was measured using a scintillation counter. The percent inhibition of amine uptake compared to controls containing no drug was calculated. […] The effect of viloxaine hydrochloride on the transport of noradenaline, dopamine, 5-hydroxytryptamine and gamma-amino-butyric acid in rat brain tissue.

[5] = system: rat brain and liver monoamine oxidase-B; experiment: Monoamine oxidase-B-inhibiting activity ex vivo; assay type: in vivo; conditions: for % Inhibition Monoamine Oxidase-B: 7 days following injection, i.p., combined with DSP4 50 mg/kg; for effect on monoamine oxidase-B activity in the brain or liver: seven days after administration
Procedure: The compounds were evaluated for ex vivo monoamine oxidase-B-inhibiting activity using the radiochemical procedure of Lyles and Callingham (1982) employing radiolabeled β-phenylethylamine as substrate for monoamine oxidase-B. The compounds of interest were injected intraperitoneally in water. Animals were killed by decapitation and the brains and livers immediately removed and frozen until assay for monoamine oxidase-B activity. Tissues were homogenized and appropriately diluted in buffer prior to incubation. Incubations proceeded at 37° C. for 10 minutes. Incubation was terminated by the addition of acid and the radiolabeled product (phenylacetic acid) was extracted and quantified by liquid scintillation counting procedures. […] The percent inhibition of monoamine oxidase-B activity compared to controls containing no drug was calculated. Reference: Lyles, G. A. and Callingham, B. A. (1982). […] Biochaem. Pharmacol. 31:1417-1424.
Neuroprotectant activity was evaluated by examining the prevention of DSP-4 induced noradrenaline depletion in mouse hippocampus as described previously (Yu et al., 1994). Briefly, mice were injected (i.p.) with either water or potential neuroprotectants (10 mg/kg in water). One hour later they were injected with either water or DSP-4 (50 mg/kg in water). One week later the mice were killed and the brains removed and the hippocampus dissected out. The hippocampus was frozen and saved for estimation of noradrenaline and other amine neurotransmitters and their metabolites (Sloley and Goldberg, 1991). The rest of the brain and the liver were frozen and retained for estimation of monoamine oxidase activities ex vivo as described earlier. […] 63:1820-1828. Sloley, B. D. and Goldberg J. I. (1991), Determination of y-glutamyl conjugates of monoamines by means of high-performance liquid chromatography with electrochemical detection and application to gastropod tissues, J. Chromatog. 567:49-56.

[6] = system: noradrenaline uptake into rat hippocampal prisms; experiment: Inhibition of noradrenaline uptake in vitro; assay type: cell-based; set-up: dose or concentration left out as unconfirmed
Procedure: The ability of N-propargylphetermine and related derivatives to inhibit monoamine uptake was evaluated in vitro by examining the effects of said compounds on the uptake of radiolabeled noradrenaline and serotonin into fresh rat hippocampal and striatal prisms, respectively according to the method described in Martin et al., (1978). Animals were killed by decapitation and the hippocampus or striatum were removed and placed in ice cold incubation medium. Prisms were prepared using a tissue chopper, resuspended in 800 volumes of incubation medium containing 12.5 μM nialamide to inhibit amine metabolism and stored on ice until used. 0.8 ml of ice cold prism of suspension per test tube was used. Each test tube was pre-incubated for 5 minutes at 37° C. At this time each test tube was placed on ice and the appropriate drug solution or control was added. This was rapidly followed by the addition of the radiolabled amine (titrated noradrenaline or serotonin, 0.01 μM, specific activity about 13.5 Ci/mmol). The mixture was incubated for 10 minutes at 37° C. The incubations were then filtered and washed using a cell harvester and the radioactivity retained on the filters was measured using a scintillation counter. The percent inhibition of amine uptake compared to controls containing no drug was calculated. Reference: Maretin I. L., Baker G. B. and Mitchell, P. R. (1978). The effect of viloxaine hydrochloride on the transport of noradenaline, dopamine, 5-hydroxytryptamine and gamma-amino-butyric acid in rat brain tissue. Neuropharmacology 17:421-423.

[7] = target: T2, rat brain monoamine oxidase-A (Rattus norvegicus, UniProt P21396); experiment: Monoamine oxidase-A-inhibiting activity in vitro (radiochemical, 5-hydroxytryptamine substrate); assay type: biochemical
T2 construct: incubated in appropriately diluted homogenates of rat brain or liver; from tissue; host or cells: rat brain or liver homogenate
T2 sequence (P21396 1-526): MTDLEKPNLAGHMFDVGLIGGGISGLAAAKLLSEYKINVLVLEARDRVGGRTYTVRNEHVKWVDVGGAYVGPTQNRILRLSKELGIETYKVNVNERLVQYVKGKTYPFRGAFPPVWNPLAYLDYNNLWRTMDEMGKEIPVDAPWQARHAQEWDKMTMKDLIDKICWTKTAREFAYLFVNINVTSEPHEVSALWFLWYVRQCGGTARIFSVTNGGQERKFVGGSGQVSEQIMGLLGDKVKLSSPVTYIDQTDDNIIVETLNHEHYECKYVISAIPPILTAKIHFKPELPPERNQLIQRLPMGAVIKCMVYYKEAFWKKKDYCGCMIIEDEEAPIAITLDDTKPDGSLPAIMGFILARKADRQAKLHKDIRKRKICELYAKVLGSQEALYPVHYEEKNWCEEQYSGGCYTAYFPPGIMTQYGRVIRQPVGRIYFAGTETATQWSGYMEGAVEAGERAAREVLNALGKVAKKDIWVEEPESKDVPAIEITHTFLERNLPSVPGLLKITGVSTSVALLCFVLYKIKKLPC
Procedure: The compounds were evaluated for in vitro monoamine oxidase-A-inhibiting activity using the radiochemical procedure of Lyles and Callingham (1982) employing radiolabeled 5-hydroxytryptamine as substrate for monoamine oxidase-A. Various concentrations of the compounds of interest were incubated in appropriately diluted homogenates of rat brain or liver in a 0.2 M potassium phosphate buffer. Incubations proceeded at 37° C. for 10 minutes. Incubation was terminated by the addition of acid and the radiolabeled product (5-hydroxyindoleacetic acid) was extracted and quantified by liquid scintillation counting procedures. […] The percent inhibition of monoamine oxidase-A activity compared to controls containing no drug was calculated.

With `C#CCNC(C)(C)Cc1ccccc1` [CVT-PP019, N-propargylphentermine] the IC50 [1] was 5.7 µM, the “% Inhibition Monoamine Oxidase-A” value ([2]; brain) was −16.4 ± 4.9% and the “% Inhibition Monoamine Oxidase-A” value ([2]; liver) was −20.1 ± 4.4%. For the same compound, the “effect on monoamine oxidase-A activity in the brain or liver” value [2] was “did not significantly affect”, the “protection against DSP-4-induced noradrenaline depletion” value [3] was “significantly protected” and the “% NA Restoration” value ([3]; Table 5 experiment) was 114.6%. The “% inhibition 5-HT uptake” value [4] was 68 ± 2%, the “% Inhibition Monoamine Oxidase-B” value ([5]; brain) was −9.4 ± 3.0% and the “% Inhibition Monoamine Oxidase-B” value ([5]; liver) was −10.1 ± 6.6%. The “effect on monoamine oxidase-B activity in the brain or liver” value [5] was “did not significantly affect”, the “% inhibition NA uptake” value [6] was 77 ± 3% and the IC50 [7] was 53 µM.

With `C#CCNC(C)(C)Cc1ccc(Cl)cc1` [CVT-PP022, p-chloro-N-propargylphentermine] the IC50 [1] was 4 µM, the “% Inhibition Monoamine Oxidase-A” value ([2]; brain) was 2.5 ± 5.2% and the “% Inhibition Monoamine Oxidase-A” value ([2]; liver) was 5.9 ± 4.1%. The “effect on monoamine oxidase-A activity in the brain or liver” value [2] was “did not significantly affect”, the “protection against DSP-4-induced noradrenaline depletion” value [3] was “significantly protected” and the “% NA Restoration” value ([3]; Table 6 experiment) was 70.5%. The “% inhibition 5-HT uptake” value [4] was 89 ± 1%, the “% Inhibition Monoamine Oxidase-B” value ([5]; brain) was 17.5 ± 5.6% and the “% Inhibition Monoamine Oxidase-B” value ([5]; liver) was 12.6 ± 5.3%. For the same compound, the “effect on monoamine oxidase-B activity in the brain or liver” value [5] was “did not significantly affect”, the “% inhibition NA uptake” value [6] was 93 ± 2% and the IC50 [7] was 160 µM.

With `CNCCCN1c2ccccc2CCc2ccccc21` [Desipramine, reference compound] the “% inhibition NA uptake” value [6] was 99 ± 3%.

In the case of `NNCCc1ccccc1` [phenelzine.H2SO4, phenelzine, reference compound], the IC50 [1] is reported as 26 µM and the IC50 ([7]; in vitro, rat brain homogenate, read-out: IC50 for inhibition of monoamine oxidase A) is reported as 130 µM.

(−)-deprenyl [reference compound] was tested, and the “% NA Restoration” value ([3]; Table 5 experiment) was 97.2% and the “% NA Restoration” value ([3]; Table 6 experiment) was 90.3%.
